One data set in a line: Log D. The format is physicochemical. The text has this: (§1) Selected compounds were screened for aqueous solubility in PBS (pH 7.4), metabolic stability in mouse liver microsomes (MLM) as a measure of clearance, Log D, and permeability. ADME studies reported in this work were independently performed by WuXi AppTec (Shanghai, China). Raw data are provided upon request.
A short description of data set [1]: Cytotoxicity assay (LDH-Glo), A549. Format: cell-based. The note with it: human, A549 cells, supplementary CSV, read-out: A549 Cell toxicity IC50. The method, then: (§2) To further characterize the potency of the phenylproline derivatives on cancer cells, their effect on proliferation has been measured on HeLa and A549 cell lines, which are known to express S100A4.[44],[45] A cell proliferation assay was performed by cultivating cells for 48 h in complete media with various concentrations of inhibitors, up to 30 μM. At the end of the treatment, luminescence was measured after the addition of the CellTiter-Glo reagent (Figure 7A).
(§3) The day before, cells were seeded in a white, cell-culture treated 384-well plates in complete high-glucose DMEM to reach a confluency of 25% on the day of the experiment. The next day, the medium was replaced by complete, high-glucose, phenol-red-free medium, and cells were incubated for 48 h in the presence of an inhibitor or DMSO as a control. Aliquots of the supernatant were harvested, diluted 100 times in 200 mM Tris-HCl, pH 7.3, 10% glycerol, and 1% BSA buffer, and used for cyctotoxicity measurement by using the LDH-Glo cytotoxicity assay kit (Promega). In parallel, the CellTiter-Glo (Promega) reagent was added to the cells to measure cell proliferation. Both experiments were done according to the manufacturer’s recommendations, and the luminescence was quantified using the FSX plate reader (Pherastar).

Another data set relates to MDCK-MDR1 cell line. As to the kind of experiment: Cell permeability MDR1-MDCK II. Format: in vitro ADME.
From the text: as §1

In data set [2] the test system is P-glycoprotein (P-gp, MDR1). Put plainly: Cell permeability MDR1-MDCK II. The note with it: dog. Format: in vitro ADME.
From the text: as §1

A short description of data set [3]: Metabolic stability in mouse liver microsomes (MLM). Format: in vitro ADME. The note with it: mouse liver microsomes.
From the text: as §1

Data set [4] in a line: Cytotoxicity assay (LDH-Glo), HeLa. The format is cell-based. To be noted: human, HeLa cells, supplementary CSV, read-out: HeLa Cell toxicity IC50. The method, then:
as §2, §3

The nature of data set [5]: Aqueous solubility in PBS (pH 7.4). The format is physicochemical.
From the text: as §1

The target in the next data set is T1, S100A11-AnII (Homo sapiens, UniProt P31949).
T1 construct: made in house; host or cells: E. coli Rosetta (DE3); peptide from LifeTein
T1 sequence (P31949 1-105): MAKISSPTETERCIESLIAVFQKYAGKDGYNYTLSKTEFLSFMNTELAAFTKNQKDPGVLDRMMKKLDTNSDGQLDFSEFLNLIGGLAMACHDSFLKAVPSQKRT
As to the kind of experiment: HTRF (TR-FRET) peptide displacement S100A11-AnII. The format is binding. The note with it: supplementary CSV. The method, then:
Table S4: Compound IDs and SMILES … S30 […]
Peptide displacement assay development
addition of an inhibitor.
Assay was done in 384-well
After 2 hours of incubation at
concentration range to avoid the saturation of the signal.
A general note: TR-FRET usually uses a lanthanide donor and a delayed reading to cut background.

The next data set concerns HeLa. As to the kind of experiment: Cell proliferation assay (CellTiter-Glo), HeLa. Format: cell-based. To be noted: Homo sapiens, 48 h, supplementary CSV. The procedure: as §2, §3
(In general: ATP-based viability assays read luminescence as a measure of living cells.)

Another data set concerns A549. As to the kind of experiment: Cell proliferation assay (CellTiter-Glo), A549. To be noted: Homo sapiens, 48 h, supplementary CSV. The format is cell-based. The procedure:
as §2, §3

The nature of data set [6]: GSH reactivity assay (LCMS). The note with it: 1 mM glutathione (GSH) in HEPES buffer, pH 7.5; read-out: GSH t1/2 (converted). Format: physicochemical. The procedure: GSH is the most abundant low molecular weight thiol compound in the cell. It protects cells from oxidative damage and the toxicity of xenobiotic electrophiles and maintains redox homeostasis.[43] We speculated that a robust and specific reaction of inhibitors would not be drastically affected by competitive cysteines in the reaction.
50 μM of each compound was incubated at room temperature with 1 mM GSH in 50 mM HEPES, 20 mM NaCl, pH 7.5, and 1.3% DMSO. At each time point, an aliquot was taken and analyzed by LCMS. The percentage of the compound remaining was determined by comparing the area of the peaks of the compound and the GSH adduct. The natural logarithm of the results was fitted to a linear regression, and t1/2 was calculated as t1/2 = ln(2)/–slope.

The next data set concerns S100A4. More on the design: method as in PMID 20421509. The note with it: by inducing oligomerization; read-out: IC50 S100A4 inhibition; cited from earlier work.

Where “and” joins values, the source holds several entries; their conditions need not be identical. Equal entries are not always repeated. Where two headings read alike, the source gives them in different places.

A word on the logD: it is the decadic logarithm of the distribution of all forms, ionised or not, between an organic phase and buffer at a given pH. A low value points to a more hydrophilic compound. One may read the IC50 as the midpoint of a concentration-inhibition curve. The term Papp denotes the rate of passage across a membrane or cell layer, normalised by area and donor concentration. A word on the solubility: it is how much of the substance goes into solution per volume. In the case of `O=C(NC1CCCc2ccccc21)[C@H]1C[C@H](c2ccccc2)CN1C(=O)CCl` (stereo partly drawn) [5b], the logD in “Log D” stood at 3.74. Moreover, the values for the half-maximal inhibitory concentration (IC50) at 48 h in data set [1] and in data set [4] were 29.7 µM and 29.9 µM, respectively. For the same molecule, in the data set with MDCK-MDR1 cell line, the “cell permeability MDCK-MDR1 (in words)” value is reported as “good permeability without efflux”. The Papp in data set [2] (MDCK-MDR1, A to B, read-out: MDR1-MDCK II, AB Papp) stood at 3.8 ×10⁻⁶ cm/s; in data set [2] (MDCK-MDR1, B to A, read-out: MDR1-MDCK II, BA Papp), 34.5 ×10⁻⁶ cm/s. Moreover, the “MLM, Cli” value in data set [3] is given as 778 μL/min/mg protein. In addition, the half-life in [3] (read-out: MLM, T1/2) was 2 min. Further, in data set [5], the “aqueous solubility (in words)” value is on record as “good solubility”. Moreover, the solubility in [5] (aqueous buffer, PBS pH 7.4, read-out: aq. solubility) was 45.7 µg/mL and 115 µM. Moreover, the results for the concentration for half-maximal inhibition (IC50) on S100A11-AnII, in the data set on HeLa and in the data set on A549 were above 30 µM, 2.6 µM and 22.1 µM, respectively. For the same molecule, the half-life at 50 μM in [6] was 5.7 h.

With `c1ccc2c(c1)Nc1ccccc1S2` [phenothiazine], in the data set with S100A4, the IC50 is around 100 µM.

The values are drawn from publication PMC11571109, “Covalent Inhibitors of S100A4 Block the Formation of a Pro-Metastasis Non-Muscle Myosin 2A Complex” (Journal of Medicinal Chemistry, 2024).
